From patent US8530452B2, “Tricyclic boron compounds for antimicrobial therapy” (Micurx Pharmaceuticals, Inc., priority 2011, dated 2013)
Read-outs that look alike come from different tables or passages of the source.

Assays:
[1] = tested on: P. aeruginosa; experiment: P. aeruginosa neutropenic mouse thigh infection model; assay type: in vivo; conditions: for CFU reduction / CFU reduction, fold: side-by-side test Example 1 vs Example 10, dose not given; for reduction in the bacterial colony-forming units (CFU) / reduction in the bacterial colony-forming units (CFU), fold: 30 mg/kg
Method: To establish the efficacy of the compounds provided herein in vivo, testing in a P. aeruginosa neutropenic mouse thigh infection model was performed with subcutaneous administration of test compounds analogously to the method described by Andes et al. in Antimicrobial Agents and Chemotherapy, 2002, 46(11), 3484-3489. In this model, a greater reduction in the bacterial colony-forming units (CFU) indicates more beneficial therapeutic effect (more bacterial eradication), while a lower CFU reduction indicates a lower effect (less bacterial eradication). The in vivo antibacterial effect is also referred to as efficacy, in contrast to the term potency commonly used for in vitro activity (expressed as MIC).

[2] = rat PK model of intravenous administration; assay type: in vivo; conditions: for AUC: in vivo
Description: To further elucidate therapeutic potential of drug compounds, pharmacokinetic (PK) data is used to establish the key parameters predictive of the therapy outcome, such as area under the curve (AUC) for a plot monitoring the change in the systemic drug concentration over time. Thus, a higher AUC value indicates a greater exposure to the drug, commonly associated with a greater therapeutic potential due to a higher amount of drug available to combat the infection in a mammal. In contrast, a lower AUC value indicates a reduced exposure to the drug under study, resulting in a reduced amount of antibiotic available to combat bacterial infestations. To that end, the compounds provided herein have been tested in the rat PK model of intravenous administration performed analogously to methods described in the monograph Current Protocols in Pharmacology, 2005, 7.1.1-7.1.26, John Wiley & Sons, Inc.

[3] = tested on: P. aeruginosa; experiment: MIC determination, antibacterial activity in vitro; assay type: cell-based, Pseudomonas aeruginosa; conditions: for MIC: Pseudomonas aeruginosa, read-out: MIC against P. aeruginosa; for reduced potency / loss of activity vs. P. aeruginosa compared to Example 7: MIC ratio vs Example 7
Description: (§1) The in vitro activity of compounds provided herein may be assessed by standard testing procedures such as the determination of minimum inhibitory concentration (MIC) as described in Approved Standard. Methods for Dilution Antimicrobial Susceptibility Tests for Bacteria that Grow Aerobically, 3rd ed., 1993, published by the National Committee for Clinical Laboratory standards, Villanova, Pa., USA. Low MIC values indicate high antibacterial activity, while high MIC values reveal a reduced antibacterial activity (with higher drug concentration required for pathogen eradication in the latter instance).

[4] = tested on: K. pneumoniae; experiment: MIC determination, antibacterial activity in vitro; assay type: cell-based, Klebsiela pneumoniae; conditions: for MIC: Klebsiella pneumoniae, Strain K. pneumoniae KPN1004, read-out: MIC, K. pneumoniae (footnote c)
Description: as §1

[5] = tested on: E. coli; experiment: MIC determination, antibacterial activity in vitro; assay type: cell-based, Escherichia coli; conditions: MIC ratio vs Example 24
Description: as §1

[6] = tested on: A. baumannii; experiment: MIC determination, antibacterial activity in vitro; assay type: cell-based, Acinetobacter baumannii; conditions: for MIC: Acinetobacter baumannii, Strain A. baumannii MABA0001, read-out: MIC, A. baumannii (footnote b); for reduced potency / loss of activity vs. A. baumannii compared to Example 7: MIC ratio vs Example 7
Description: as §1

[7] = tested on: Gram-negative pathogens; experiment: Antibacterial activity against Gram-negative pathogens in vitro (overall statements); assay type: cell-based; conditions: Table 1 pathogens overall
Description: as §1

[8] = intravenous, dose not given, Example 1 vs Example 10, read-out: AUC
[9] = subcutaneous, side-by-side test Example 3 vs Example 24
[10] = another test, side-by-side Example 3 vs Example 25
[11] = intravenous, 10 mg/kg, read-out: exposure (AUC)

## Cl.NCC1OB2O[C@H](CO)COc3cccc1c32 (stereo partly drawn) [Example 1, ((8R)-2-(Aminomethyl)-7,8-dihydro-2H-1,6,9-trioxa-9a-borabenzo[cd]azulen-8-yl)methanol hydrochloride]
[1]; side-by-side test
  superiority in the bacterial reduction over Example 10: 79 fold
[1]
  CFU reduction: about 3.2 log
  CFU reduction, fold: about 1584 fold
[2]; [8]
  AUC: ~11500 ng·h/mL
[2]; intravenous
  improvement in exposure (AUC) over reference compound of Example 10: more than 2 fold
[3]
  MIC: 2 to 4 µg/mL

## Cl.NC[C@H]1OB2O[C@H](CO)COc3cccc1c32 [Example 3, ((2S,8R)-2-(Aminomethyl)-7,8-dihydro-2H-1,6,9-trioxa-9a-borabenzo[cd]azulen-8-yl)methanol hydrochloride]
[4]; MIC ratio vs Example 24
  improved activity against K. pneumoniae as compared to reference compound of Example 24: 2 fold
[5]
  improved activity against E. coli as compared to reference compound of Example 24: 2 fold
[1]; 30 mg/kg both agents
  higher degree of pathogen reduction compared to reference compound of Example 24: over 80 fold
  more efficient in thigh infection model compared to reference compound of Example 25: about 12 fold
[1]; [9]
  reduction in the bacterial colony-forming units (CFU): about 3.6 log
  reduction in the bacterial colony-forming units (CFU), fold: about 3981 fold
[1]; [10]
  reduction in the bacterial colony-forming units (CFU): about 3.44 log
  reduction in the bacterial colony-forming units (CFU), fold: about 2754 fold
[2]; [11]
  AUC: ~14100 ng·h/mL
[2]; intravenous, 10 mg/kg
  improvement in exposure (AUC) over reference compound of Example 24: 2.7 fold
  improvement in exposure (AUC) over reference compound of Example 25: over 2 fold
[3]; MIC ratio vs Example 24
  improved activity against P. aeruginosa as compared to reference compound of Example 24: 2 fold
[3]
  MIC: 2 to 4 µg/mL

## Cl.NCC1OB2O[C@@H](CO)COc3cccc1c32 (stereo partly drawn) [Example 4, ((8S)-2-(Aminomethyl)-7,8-dihydro-2H-1,6,9-trioxa-9a-borabenzo[cd]azulen-8-yl)methanol hydrochloride]
[4]
  MIC: 2000 µg/mL
[6]
  MIC: 4000 µg/mL
[3]
  MIC: 2 to 4 µg/mL

## Cl.NCC1OB2OC(CO)COc3cccc1c32 (stereo not drawn) [Example 7]
[4]
  MIC: 4000 µg/mL
[6]
  MIC: 4000 µg/mL
[3]
  MIC: 2 to 4 µg/mL

## Cl.NCC1OB2OCC(CO)Oc3cccc1c32 (stereo not drawn) [Example 11, (2-(Aminomethyl)-7,8-dihydro-2H-1,6,9-trioxa-9a-borabenzo[cd]azulen-7-yl)methanol hydrochloride]
[6]
  reduced potency / loss of activity vs. A. baumannii compared to Example 7: 4 fold
[3]
  reduced potency / loss of activity vs. P. aeruginosa compared to Example 7: 4 fold

## Cl.NCC1OB2OC(CCO)COc3cccc1c32 (stereo not drawn) [Example 12, 2-(2-(Aminomethyl)-7,8-dihydro-2H-1,6,9-trioxa-9a-borabenzo[cd]azulen-8-yl)ethanol hydrochloride]
[6]; compared to Example 7
  activity vs. A. baumannii in words: total loss of activity
[3]
  reduced potency / loss of activity vs. P. aeruginosa compared to Example 7: 4 fold

## CC1(CO)COc2cccc3c2B(OC3CN)O1.Cl (stereo not drawn) [Example 13, (2-(Aminomethyl)-8-methyl-7,8-dihydro-2H-1,6,9-trioxa-9a-borabenzo[cd]azulen-8-yl)methanol hydrochloride]
[6]
  reduced potency / loss of activity vs. A. baumannii compared to Example 7: about 4 fold

## CC(O)C1COc2cccc3c2B(OC3CN)O1.Cl (stereo not drawn) [Example 14, 1-(2-(Aminomethyl)-7,8-dihydro-2H-1,6,9-trioxa-9a-borabenzo[cd]azulen-8-yl)ethanol hydrochloride]
[6]
  reduced potency / loss of activity vs. A. baumannii compared to Example 7: about 4 fold

## Cl.NC[C@H]1OB2O[C@H](CO)COc3c(F)ccc1c32 [Example 18, ((2S,8R)-2-(Aminomethyl)-5-fluoro-7,8-dihydro-2H-1,6,9-trioxa-9a-borabenzo[cd]azulen-8-yl)methanol hydrochloride]
[7]
  antibacterial activity (potency) in words: reduced activity

## Cl.NCC1OB(O)c2c(OCCCO)cccc21 (stereo not drawn) [Reference Example 10, 3-(Aminomethyl)-7-(3-hydroxypropoxy)benzo[c][1,2]oxaborol-1(3H)-ol hydrochloride, reference compound]
[1]
  CFU reduction: about 1.3 log
  CFU reduction, fold: about 20 fold
[2]; [8]
  AUC: ~5370 ng·h/mL
[3]
  MIC: 8 µg/mL

## Cl.NCC1OB(O)c2c(OCC[C@H](O)CO)cccc21 (stereo partly drawn) [compound 22, (2S)-4-((3-(Aminomethyl)-1-hydroxy-1,3-dihydrobenzo[c][1,2]oxaborol-7-yl)oxy)butane-1,2-diol hydrochloride]
[7]
  antibacterial activity (potency) in words: essentially inactive

## Cl.NCC1OB(O)c2c(OCC(CO)CO)cccc21 (stereo not drawn) [compound 23, 2-(((3-(Aminomethyl)-1-hydroxy-1,3-dihydrobenzo[c][1,2]oxaborol-7-yl)oxy)methyl)propane-1,3-diol hydrochloride]
[7]
  antibacterial activity (potency) in words: essentially inactive

## Cl.NCC1OB2OCCOc3cccc1c32 (stereo not drawn) [compound 24, (7,8-Dihydro-2H-1,6,9-trioxa-9a-borabenzo[cd]azulen-2-yl)methanamine hydrochloride, reference compound]
[1]; [9]
  reduction in the bacterial colony-forming units (CFU): about 1.7 log
  reduction in the bacterial colony-forming units (CFU), fold: about 50 fold
[2]; [11]
  AUC: ~5300 ng·h/mL

## Cl.NC[C@H]1OB(O)c2c(OCCCO)cccc21 [compound 25, (S)-3-(Aminomethyl)-7-(3-hydroxypropoxy)benzo[c][1,2]oxaborol-1(3H)-ol hydrochloride, reference compound]
[7]
  antibacterial activity (potency) in words: active
[1]; [10]
  reduction in the bacterial colony-forming units (CFU): about 2.37 log
  reduction in the bacterial colony-forming units (CFU), fold: about 234 fold
[2]; iv, 10 mg/kg
  AUC: ~6240 ng·h/mL
